Experimental data from patent US11446294B2, “Non-platinum-based anti-cancer compounds for use in targeted chemotherapy” (priority 2013, dated 2022).
Entries after “also recorded” stand apart in the source; their conditions may differ.

Tests used:
[1] = fs-TRLS observation of DET reaction with a weakly-bound electron; conditions: pump 350 nm, probe 400 nm; for DET reaction with weakly-bound electron ewb−: identical conditions
Description: Femtosecond (fs) time-resolved laser spectroscopy (fs-TRLS) is the most versatile and powerful technique for real-time observation of molecular reactions. It uses laser flashes of such short duration that we are down to the time scale on which the reactions actually happen—femtoseconds (fs) (1 fs=10^−15 seconds). […] For the latter, briefly our fs laser amplifier system (Spectra-Physics, Spitfire) produced laser pulses with a pulse width of 100-120 fs at a repetition rate of 500 Hz. A intense pump pulse at 350 nm was used to generate a weakly-bound electron (ewb^−) by 2-photon excitation of a H2O molecule into a higher energy state H2O* that then ionizes to produce an ewb^−; a probe pulse at 400 nm coming at certain delay was used to monitor the DET reaction with the electron by detecting transient absorbance of the reaction intermediate anion state.

[2] = test system: human cervical cancer (HeLa) cells; test: MTT cell viability, HeLa; format: cell-based; conditions: 96-hr treatment
[3] = test system: human cervical cancer (ME-180) cells; test: MTT cell viability, ME-180; format: cell-based; conditions: ME-180, 96-hr treatment
Procedure: (§1) The complete growth media for ME-180, NIH:OVCAR-3, A549 and MDA-MB-231 cells were the ATCC-formulated McCoy's 5A Medium supplemented with 10% FBS, RPMI 1640 medium with 20%, F-12K medium with 10% FBS, and L-15 Medium (Leibovitz) with 10% FBS, respectively.
(§2) The MTT assay of cell viability was then conducted.

[4] = test system: human breast cancer (MDA-MB-231) cells; test: MTT cell viability, MDA-MB-231; format: cell-based; conditions: MDA-MB-231, 96-hr treatment
Procedure: as §1, §2

[5] = test system: human lung cancer (A549) cells; test: MTT cell viability, A549; format: cell-based
Procedure: as §1, §2

[6] = test system: cisplatin-resistant human ovarian cancer (NIH:OVCAR-3, HTB-161) cells; test: MTT cell viability, HTB-161; format: cell-based; conditions: HTB-161, 96-hr treatment
Procedure: as §1, §2

[7] = test system: human normal cells (GM05757); test: MTT cell viability, human normal cells (toxicity); conditions: for toxicity to human normal cells (cell survival rate): GM05757, 96-hr treatment, up to 200 μM
Procedure: A human skin diploid fibroblast (GM05757 cell line) was obtained from the Coriell Cell Repository directly. Fetal bovine serum (FBS) was obtained from Hyclone Laboratories (UT, USA). The GM05757 normal cells were cultivated with MEM (Hyclone) supplemented with 10% FBS, 100 units/mL penicillin G and 100 μg/mL streptomycin (Hyclone). The cells were maintained at 37° C. in a humidified atmosphere containing 5% CO2.
The toxic effects of NPBs on cell viability were determined by the 3-[4,5-dimethylthiazol-2-yl]-2,5-diphenyl tetrazoliumbromide (MTT) assay. Cells were cultured in 96-well plates (5×10^3 cells/well) for 24 h. The culture medium was replaced by fresh culture medium and incubated for 72 or 96 h with varying drug concentrations. The MTT assay of cell viability was then conducted. Briefly, 100 μl new medium without phenol red containing 1.2 mM MTT (sigma) (i.e., adding 10 μl 12 mM MTT stock solution in PBS) were added to each well and incubated for 4 h. The medium was then removed, and the formazan crystals solubilized by 100 μL/well DMSO (or alternatively by 100 μl/well SDS and incubated for another 4 h). The surviving fraction was determined by measuring the absorbance at 540 nm (570 nm for SDS solubilization) using a Multiskan Spectrum UV/Vis microplate reader (Thermo Scientific), which is directly proportional to the number of viable cells.

[8] = test system: human cervical cancer (ME-180) cells; test: γH2AX DNA damage assay (DNA double-strand breaks); format: cell-based; conditions: ME-180, 12 h treatment
Procedure: The γH2AX DNA damage assay (Invitrogen) was used to detect DSBs of genomic DNA in cancer cells. The phosphorylated H2AX foci are a biomarker of DNA DSB. DNA DSBs are measured by specific antibody-based detection of phosphorylated H2AX (γH2AX) in the nucleus. Briefly, the human cervical cancer (ME-180) cells were treated with different concentrations of compound B for 12 h under the cell culture conditions described above. Then following the detailed experimental procedures described in the Protocol provided by the manufacturer, we performed the HCS DNA Damage Assay of the treated cells. The images of cells were acquired with a Nikon Eclipse TS100 fluorescence microscope; quantitative analyses of activated γ-H2AX (DNA DBS yield) in the cells were performed using an Image J software.

[9] = test system: human cervical cancer (ME-180) cells; test: CellEvent Caspase-3/7 apoptosis assay by fluorescence microscopy; format: cell-based; conditions: 48 h
Description: Human cervical cancer (ME-180) cells were purchased from the American Type Culture Collection (ATCC).
The CellEvent™ Caspase-3/7 Green Detection Kit (Invitrogen) was used for the detection of activated caspases and apoptotic cells following the vendor's protocol. This kit provides a […] specific for caspase-3 and -7; the cells show green fluorescence for activated caspase-3 and -7. The reagent consists of a four amino acid peptide (DEVD) conjugated to a nucleic acid binding dye. This cell-permeant substrate is intrinsically non-fluorescent, because the DEVD peptide inhibits the ability of the dye to bind to DNA. After activation of caspase-3 or caspase-7 in apoptotic cells, the DEVD peptide is cleaved, enabling the dye to bind to DNA and produce green fluorescence. Briefly, to use the CellEvent™ Caspase-3/7 Green Detection Reagent, add the substrate to the cells in complete growth medium, incubate for 30 minutes, and image. […] Because the cleaved reagent labels nuclei of caspase 3/7-positive cells, this stain can also provide information on nuclear morphology, including condensed nuclei typical of late-stage apoptosis. ME-180 cells were grown to 60% confluence and then treated with 0-200 μM compound B for 48 h. The fluorescence was detected with a Nikon Eclipse TS100 microscope. Images were captured with an attached camera.

[10] = test system: human cervical cancer (ME-180) tumor; test: Xenograft mouse model of human cervical cancer (ME-180); format: in vivo, SCID mice; conditions: 7 mg/kg daily for 5 days, IP
Procedure: The two groups in the experiment were: (1) control article (5% EtOH/medium); (2) Compound B at 7 mg/kg in 5% EtOH/medium daily for 5 days, as shown in Table 1.
(§3) 6-8 week SCID mice were used in this study; Compound B as an exemplary NPB was dissolved in 5% EtOH: 95% cell culture medium (≈1:20).
ME-180 (human cervical cancer) cells were cultured in the ATCC-formulated McCoy's 5A Medium supplemented with 10% FBS. […] The cells were rinsed with PBS, trypsined for detachment from the bottom of the flask, mixed with fresh growth medium, and centrifuged to remove the supernatant. The cells were re-suspend with fresh medium to appropriate concentration for s.c. injection into the mice. Injection volume was 50 μl (1.5×10^6 cells) per animal.
ME-180 tumour cells were subcutaneously into female SCID mice (age 6-8 weeks) in a volume of 50 μL into the left flank using a 27-gauge needle. This was established as a subcutaneous (SC) xenograft mouse model of human cervical cancer.
(§4) Mice were individually weighed and injected intraperitoneally according to body weight for an injection concentration as outlined in the study group table above. The injection volume was based on 200 μL per 20 g mouse. The skin surface was wiped down with 70% isopropyl alcohol to clean the injection site.
Tumor size was measured as a function of time to assess tumor growth delay associated with treatment using slide caliper. […]

[11] = In vivo toxicity in SCID mice
Procedure: The two groups (five 6-8 week SCID mice/group) in the experiment were: (1) control article (in 5% EtOH/medium); and (2) Compound B 7 mg/kg in 5% EtOH/medium, as shown in Table 2. Compound B was injected IP every day for 5 days.
as §3
as §4, with “6-8 week SCID Mice” for “Mice”, “intraperitoneally (IP)” for “intraperitoneally”, “above. Compound B was administered by IP injection into mice at 0, and 7 mg/kg daily for 5 days.” for “above.”
The overall drug toxicity in mice was observed by a survival assay and body weight measurements, and the acute drug toxicity was measured by blood collection and histology. The hepatotoxicity (ALT, ALP, total bilirubin), nephrotoxicity (blood urea, creatinine), and electrolytes (Na, K, Cl) were analyzed by biochemical methods or HPLC-mass spectroscopy. […] Blood samples were collected from the saphenous vein at various time points after drug injection. At the end of the study, whole organs were harvested in order to assess liver, and kidney toxicity.
All animals were observed post administration, and at least once a day, more if deemed necessary, during the pre-treatment and treatment periods for mortality and morbidity. In particular, animals were monitored for signs of ill health such as body weight loss, change in appetite, behavior changes such as altered gait, lethargy and gross manifestations of stress.

[12] = mouse, in vivo, ip, 7 mg/kg/day

Compound	DET reaction with weakly-bound electron ewb− [1]	cell survival rate (killing of cancer cells) [2]	cell survival rate (killing of cancer cells) [3]	cell survival rate (killing of cancer cells) [4]	cell survival rate (killing of cancer cells) ([5]; A549, 96 hr treatment)	cell survival rate (killing of cisplatin-resistant cancer cells) [6]	toxicity to human normal cells (cell survival rate) [7]	other results
O=c1[nH]c(=O)n([C@H]2C[C@H](O)[C@@H](CO)O2)cc1Br [BrdU, bromodeoxyuridine]	no DET reactions detected; also recorded: negligible; also recorded: no DET reaction	–	–	–	–	–	–	–
bromo-(1,2-)diamino-benzene [Compound D]	–	significant killing	significant killing	significant killing	significant killing	significant killing	essentially no toxicity; also recorded: little toxicity	–
Nc1cc(I)c(I)cc1N [Compound C, 4,5-diiodo-1,2-phenylenediamine]	–	significant killing	–	significant killing	–	significant killing	essentially no toxicity; also recorded: little toxicity	cell survival rate (killing of cancer cells) ([5]; A549, 72 hr treatment): significant killing
Nc1cc(Cl)c(Cl)cc1N [Compound A, 4,5-dichloro-1,2-phenylenediamine]	–	significant killing	significant killing	significant killing	significant killing	significant killing	essentially no toxicity; also recorded: little toxicity	–
O=c1[nH]c(=O)n([C@H]2C[C@H](O)[C@@H](CO)O2)cc1I [IdU, iododeoxyuridine]	no DET reactions detected; also recorded: negligible; also recorded: no DET reaction	–	–	–	–	–	–	–
cis-Pt(NH3)2Cl2 [cisplatin, reference compound]	–	–	–	–	–	–	–	IC50 ([7]; read-out: IC50 (cell survival rate 50% with respect to untreated cells), GM05757, 72-hr treatment): ~10 µM
Nc1cc(Br)c(Br)cc1N [Compound B, 4,5-dibromo-1,2-phenylenediamine]	highly effective	significant killing	significant killing	significant killing	significant killing	significant killing	essentially no toxicity; also recorded: little toxicity	dissociative lifetime of NPB*− ([1]; ethanol): ~6.0 ps; yield of DNA double-strand breaks (γ-H2AX intensity) [8]: significant amount of DNA DSBs; activation of caspase-3 and -7 ([9]; ME-180, 0-200 μM): significant activation; population of apoptotic cells ([9]; ME-180, 200 μM): ≥ 60%; tumor growth vs control group [10]: significantly suppressed tumor growth; overall toxicity ([11]; 7 mg/kg daily for 5 days, IP): no overall drug toxicity; electrolytes (Na, K, Cl) [11, 12]: no changes in electrolytes; hepatotoxicity (ALT, ALP, total bilirubin) [11, 12]: no hepatotoxicity; nephrotoxicity (blood urea, creatinine) [11, 12]: no nephrotoxicity
